Data as given in publication PMC12571268, “Functional expression of a Mo-dependent formate dehydrogenase in Escherichia coli under aerobic conditions” (PLOS One, 2025).

Target: T1, TsFDH (formate dehydrogenase of Thiobacillus sp. KNK65MA) (Thiobacillus sp. KNK65MA, UniProt Q76EB7)
T1 construct: gene fdh65MA; full-length synthetic gene codon-optimized for E. coli on pZE plasmid pGEN1395 in E. coli delta-lpd; clarified lysate; metal-independent
T1 sequence (Q76EB7 1-401): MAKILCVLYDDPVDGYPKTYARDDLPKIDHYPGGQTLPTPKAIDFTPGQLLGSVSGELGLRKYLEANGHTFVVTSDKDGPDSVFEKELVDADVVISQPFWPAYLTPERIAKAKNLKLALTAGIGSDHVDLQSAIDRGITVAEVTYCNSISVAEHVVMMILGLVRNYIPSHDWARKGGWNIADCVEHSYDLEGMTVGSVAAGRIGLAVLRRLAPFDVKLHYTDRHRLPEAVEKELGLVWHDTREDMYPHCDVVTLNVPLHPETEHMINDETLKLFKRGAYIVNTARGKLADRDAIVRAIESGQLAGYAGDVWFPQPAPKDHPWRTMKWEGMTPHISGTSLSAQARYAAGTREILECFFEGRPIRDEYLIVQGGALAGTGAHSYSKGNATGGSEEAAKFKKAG
Experiment: NADH formation at […] nm in clarified lysate, blank without formate subtracted
Assay type: biochemical
Conditions: 100 mM formate, 5 mM NAD+, 100 mM Tris pH 9.0; plasmid-free strains as control

O=CO [formate]
NADH formation at 340 nm in clarified lysate, blank without formate subtracted: lysates of the strains containing the FDH from Thiobacillus yielded higher specific activity
